For one assay, the target named is Mu-type opioid receptor (Rattus norvegicus, UniProt P33535). Description: Displacement of [3H]DAMGO from MOR in Wistar rat brain membranes by liquid scintillation counting method. It counts as cell membranes, Membrane.
Assay [1] deals with Delta-type opioid receptor (Rattus norvegicus, UniProt P33533). Description: Displacement of [3H][Ile5,6]deltorphin-2 from DOR in Wistar rat brain membranes by liquid scintillation counting method. It counts as cell membranes, Membrane. A general note: Loss of bound radioactivity is the signal in a displacement assay; it reports binding, not function.
The target in assay [2] is Kappa-type opioid receptor (Cavia porcellus, UniProt P41144). Description: Displacement of [3H]nor-BNI from KOR in Dunkin Hartley guinea pig membranes by liquid scintillation counting method. In kind it is cell membranes.

As a reminder, the pIC50 is the negative decadic logarithm of the IC50, by convention in mol/L. Read a high pIC50 as a small IC50.

pIC50: −log10 of the molar value. Bridge positions count the residues as written; N and C are the ends. Square brackets hold non-standard residues; d marks the D form. Peptide text beside a SMILES is read from it.

Sequence of Delta-type opioid receptor (P33533 whole entry): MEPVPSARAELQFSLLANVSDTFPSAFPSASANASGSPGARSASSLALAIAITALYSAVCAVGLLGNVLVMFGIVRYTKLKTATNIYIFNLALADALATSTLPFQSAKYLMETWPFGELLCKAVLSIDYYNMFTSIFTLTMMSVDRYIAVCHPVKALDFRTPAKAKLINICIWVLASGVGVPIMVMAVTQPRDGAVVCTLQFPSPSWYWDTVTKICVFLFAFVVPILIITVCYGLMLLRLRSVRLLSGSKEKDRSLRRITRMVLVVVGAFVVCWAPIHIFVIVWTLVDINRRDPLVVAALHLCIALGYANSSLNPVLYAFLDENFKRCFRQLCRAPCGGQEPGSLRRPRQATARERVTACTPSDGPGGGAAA
Sequence of Kappa-type opioid receptor (P41144 whole entry): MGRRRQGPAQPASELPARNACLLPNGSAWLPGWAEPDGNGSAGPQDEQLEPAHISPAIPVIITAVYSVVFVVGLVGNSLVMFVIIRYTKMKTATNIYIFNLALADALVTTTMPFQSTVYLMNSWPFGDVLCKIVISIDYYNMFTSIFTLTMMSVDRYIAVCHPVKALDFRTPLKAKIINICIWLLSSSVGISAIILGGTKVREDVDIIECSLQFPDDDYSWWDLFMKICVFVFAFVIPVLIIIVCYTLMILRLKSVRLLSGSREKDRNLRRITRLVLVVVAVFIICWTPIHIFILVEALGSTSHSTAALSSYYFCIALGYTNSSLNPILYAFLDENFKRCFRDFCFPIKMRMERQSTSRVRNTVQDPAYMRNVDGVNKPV
Sequence of Mu-type opioid receptor (P33535 whole entry): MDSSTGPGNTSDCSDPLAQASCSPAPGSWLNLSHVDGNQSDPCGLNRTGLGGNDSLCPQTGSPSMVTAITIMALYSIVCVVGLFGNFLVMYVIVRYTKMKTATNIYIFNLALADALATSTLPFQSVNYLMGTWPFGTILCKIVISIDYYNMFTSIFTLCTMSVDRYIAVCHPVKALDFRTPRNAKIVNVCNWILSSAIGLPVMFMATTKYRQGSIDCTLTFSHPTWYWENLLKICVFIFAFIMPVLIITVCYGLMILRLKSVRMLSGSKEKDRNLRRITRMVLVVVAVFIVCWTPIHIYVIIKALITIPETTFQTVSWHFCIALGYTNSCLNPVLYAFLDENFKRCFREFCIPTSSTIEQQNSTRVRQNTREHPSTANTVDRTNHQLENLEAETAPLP

For `NC(=O)[C@@H]1CC(=O)N[C@H]2CC[C@H](CC2)C[C@@H](NC(=O)[C@@H](N)Cc2ccc(O)cc2)C(=O)N[C@@H](Cc2ccccc2)C(=O)N[C@@H](Cc2ccccc2)C(=O)N1`, the values for the pIC50 (on Mu-type opioid receptor; in assay [1]) were 8.49 and below 6.00, respectively.
Taken in the same sequence, the figures for `NC(=O)[C@@H]1CC(=O)N[C@H]2CC[C@@H](CC2)C[C@@H](NC(=O)[C@@H](N)Cc2ccc(O)cc2)C(=O)N[C@@H](Cc2ccccc2)C(=O)N[C@@H](Cc2ccccc2)C(=O)N1` were 8.68 and 8.41.
`Cc1cc(O)cc(C)c1C[C@H](N)C(=O)N[C@@H]1C[C@H]2CC[C@H](CC2)NC(=O)C[C@@H](C(N)=O)NC(=O)[C@H](Cc2ccccc2)NC(=O)[C@H](Cc2ccccc2)NC1=O`: the pIC50 at Mu-type opioid receptor is 10.40; in assay [1] it was below 6.00; in assay [2], below 6.00.
For the compound `Cc1cc(O)cc(C)c1C[C@H](N)C(=O)N[C@@H]1C[C@H]2CC[C@@H](CC2)NC(=O)C[C@@H](C(N)=O)NC(=O)[C@H](Cc2ccccc2)NC(=O)[C@H](Cc2ccccc2)NC1=O`, the pIC50 at Mu-type opioid receptor is 10.66; in assay [1], 9.42; in assay [2], 7.60.
For `NC(=O)[C@@H]1CC(=O)NCCCC[C@@H](NC(=O)[C@@H](N)Cc2ccc(O)cc2)C(=O)N[C@@H](Cc2ccccc2)C(=O)N[C@@H](Cc2ccccc2)C(=O)N1` (H-Y[dK]FFD-NH2; lactam 2-5), the pIC50 in assay [2] is 8.63.

Values taken from ChEMBL document CHEMBL3352451, “Cyclic side-chain-linked opioid analogs utilizing cis- and trans-4-aminocyclohexyl-D-alanine” (Bioorg Med Chem, 2014).
